Data taken from US20060069132A1, “Azolecarboxamide herbicides” (priority 2004, published 2006).

Tests used:
Surinam grass = assay: Test B pre-/postemergence herbicide test; type: in vivo, Urochloa decumbens; conditions: for Surinam Grass plant response rating: postemergence, visual rating
Summary of the method: (§1)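 Visual rating, 0 (no effect) to 100 (complete control), versus untreated controls after 13–15 d in greenhouse. Pre- and postemergence applications (postemergence plants 2–18 cm, 1–4 leaves); flooded paddy arm at 2-leaf stage. Compounds in non-phytotoxic solvent plus surfactant.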

corn = assay: Test B pre-/postemergence herbicide test; type: in vivo, Zea mays
Summary of the method: as §1

large crabgrass = assay: Test B pre-/postemergence herbicide test; type: in vivo, Digitaria sanguinalis
Summary of the method: as §1

giant foxtail = assay: Test B pre-/postemergence herbicide test; type: in vivo, Setaria faberi
Summary of the method: as §1

lambsquarters = assay: Test B pre-/postemergence herbicide test; type: in vivo, Chenopodium album; conditions: for Lambsquarters plant response rating: postemergence, visual rating
Summary of the method: as §1

morningglory = assay: Test B pre-/postemergence herbicide test; type: in vivo, Ipomoea coccinea; conditions: for Morningglory plant response rating: postemergence, visual rating
Summary of the method: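 Plants compared with untreated controls 13–15 days post-treatment and given a visual 0–100 injury score. Applications: preemergence to seeds; postemergence at 1- to 4-leaf (2–18 cm); paddy species flooded, 2-leaf stage. Vehicle non-phytotoxic, surfactant included.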

pigweed = assay: Test B pre-/postemergence herbicide test; type: in vivo, Amaranthus retroflexus; conditions: for Pigweed plant response rating: postemergence, visual rating
Summary of the method: as §1

velvetleaf = assay: Test B pre-/postemergence herbicide test; type: in vivo, Abutilon theophrasti; conditions: for Velvetleaf plant response rating: postemergence, visual rating
Summary of the method: as §1

blackgrass = assay: Test B postemergence herbicide test; type: in vivo, Alopecurus myosuroides; conditions: scale 0 (no effect) to 100 (complete control); for Plant response rating, Blackgrass: Postemergence, 500 g ai/ha, visual rating after 13 to 15 days; for Blackgrass plant response rating: postemergence, 125 g ai/ha, visual rating
Summary of the method: (§2)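 Formulated test chemicals went onto postemergence plants measuring 2 to 18 cm, at one to four leaves. For the paddy assay, species had reached two leaves. Scoring took place 13–15 days later by eye, relative to untreated plants, using 0 for no effect up to 100 for full control.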

wheat = assay: Test B postemergence herbicide test; type: in vivo, Triticum aestivum; design: key to Wheat plant response rating: 0 = no effect, 100 = complete control; conditions: scale 0 (no effect) to 100 (complete control); for Plant response rating, Wheat: Postemergence, 500 g ai/ha, visual rating after 13 to 15 days; for Wheat plant response rating: postemergence, 125 g ai/ha, visual rating
Summary of the method: as §2

wild oat = assay: Test B postemergence herbicide test; type: in vivo, Avena fatua; conditions: scale 0 (no effect) to 100 (complete control); for Plant response rating, Oat, Wild: Postemergence, 500 g ai/ha, visual rating after 13 to 15 days; for Oat, Wild plant response rating: postemergence, 125 g ai/ha, visual rating
Summary of the method: as §2

rice = assay: Test B flooded paddy test; type: in vivo, Oryza sativa; conditions: 1000 g ai/ha, visual rating, scale 0 to 100 (0 no effect, 100 complete control), 13 to 15 days
Summary of the method: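 Read-out: visual comparison with controls, scored 0 to 100, where 100 means complete control and 0 no effect. Formulated chemicals were applied postemergence to plants 2–18 cm tall (1- to 4-leaf), or to flooded-paddy plants at the 2-leaf stage, then held 13 to 15 days under glass.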

[1] = test system: small flower umbrella sedge; assay: Test B flooded paddy test; type: in vivo, Cyperus difformis; conditions: 1000 g ai/ha, visual rating, scale 0 to 100 (0 no effect, 100 complete control), 13 to 15 days
Summary of the method: as §2

ducksalad = assay: Test B flooded paddy test; type: in vivo, Heteranthera limosa; conditions: 1000 g ai/ha, visual rating, scale 0 to 100 (0 no effect, 100 complete control), 13 to 15 days
Summary of the method: as §2

barnyardgrass = assay: Test B flooded paddy test; type: in vivo, Echinochloa crus-galli; conditions: 1000 g ai/ha, visual rating, scale 0 to 100 (0 no effect, 100 complete control), 13 to 15 days
Summary of the method: as §2

[2] = Postemergence, 500 g ai/ha, visual rating after 13 to 15 days, scale 0 (no effect) to 100 (complete control)
[3] = 125 g ai/ha, scale 0 (no effect) to 100 (complete control)
[4] = preemergence, 125 g ai/ha, 0 to 100 scale, 0 is no effect, 100 is complete control
[5] = Preemergence, 500 g ai/ha, scale 0 to 100
[6] = postemergence, 125 g ai/ha, visual rating, scale 0 (no effect) to 100 (complete control)

## CCn1nc(C(C)(C)C)cc1C(=O)Nc1cccc(C(=O)NCC(C)C)c1 [Compound 61]
Surinam grass; [2]
  Plant response rating, Surinam Grass: 30
Surinam grass; [3]
  Surinam Grass plant response rating: 20
Surinam grass; [4]
  Plant response rating, Surinam Grass: 10
corn; [2]
  Plant response rating, Corn: 40
corn; [5]
  Corn plant response rating: 10
corn; [6]
  Corn plant response rating: 20
corn; [4]
  Plant response rating, Corn: 0
Large crabgrass; [2]
  Plant response rating, Crabgrass, Large: 30
Large crabgrass; [5]
  Crabgrass, Large plant response rating: 100
Large crabgrass; [6]
  Crabgrass, Large plant response rating: 20
Large crabgrass; [4]
  Plant response rating, Crabgrass, Large: 50
Giant foxtail; [2]
  Plant response rating, Foxtail, Giant: 30
Giant foxtail; [5]
  Foxtail, Giant plant response rating: 80
Giant foxtail; [6]
  Foxtail, Giant plant response rating: 20
Giant foxtail; [4]
  Plant response rating, Foxtail, Giant: 20
lambsquarters; [2]
  Plant response rating, Lambsquarters: 100
lambsquarters; [3]
  Lambsquarters plant response rating: 90
lambsquarters; [4]
  Plant response rating, Lambsquarters: 100
morningglory; [2]
  Plant response rating, Morningglory: 50
morningglory; [3]
  Morningglory plant response rating: 20
pigweed; [2]
  Plant response rating, Pigweed: 60
pigweed; [3]
  Pigweed plant response rating: 20
pigweed; [4]
  Plant response rating, Pigweed: 80
velvetleaf; [2]
  Plant response rating, Velvetleaf: 70
velvetleaf; [3]
  Velvetleaf plant response rating: 30
velvetleaf; [4]
  Plant response rating, Velvetleaf: 70
blackgrass
  Plant response rating, Blackgrass: 0
  Blackgrass plant response rating: 0
wheat
  Plant response rating, Wheat: 10
  Wheat plant response rating: 10
Wild oat
  Plant response rating, Oat, Wild: 20
  Oat, Wild plant response rating: 20
rice
  Rice plant response rating: 0
[1]
  Sedge, Umbrella plant response rating: 60
ducksalad
  Ducksalad plant response rating: 80
barnyardgrass
  Barnyardgrass plant response rating: 30

## CCn1nc(C(C)(C)C)cc1C(=O)Nc1cccc(C(=O)NCC2CC2)c1 [Compound 62]
Surinam grass; [2]
  Plant response rating, Surinam Grass: 70
Surinam grass; [3]
  Surinam Grass plant response rating: 50
Surinam grass; [4]
  Plant response rating, Surinam Grass: 10
corn; [2]
  Plant response rating, Corn: 20
corn; [5]
  Corn plant response rating: 10
corn; [6]
  Corn plant response rating: 10
corn; [4]
  Plant response rating, Corn: 0
Large crabgrass; [2]
  Plant response rating, Crabgrass, Large: 20
Large crabgrass; [5]
  Crabgrass, Large plant response rating: 100
Large crabgrass; [6]
  Crabgrass, Large plant response rating: 10
Large crabgrass; [4]
  Plant response rating, Crabgrass, Large: 80
Giant foxtail; [2]
  Plant response rating, Foxtail, Giant: 30
Giant foxtail; [5]
  Foxtail, Giant plant response rating: 90
Giant foxtail; [6]
  Foxtail, Giant plant response rating: 10
Giant foxtail; [4]
  Plant response rating, Foxtail, Giant: 70
lambsquarters; [2]
  Plant response rating, Lambsquarters: 90
lambsquarters; [3]
  Lambsquarters plant response rating: 80
lambsquarters; [4]
  Plant response rating, Lambsquarters: 100
morningglory; [2]
  Plant response rating, Morningglory: 60
morningglory; [3]
  Morningglory plant response rating: 20
morningglory; [4]
  Plant response rating, Morningglory: 10
pigweed; [2]
  Plant response rating, Pigweed: 90
pigweed; [3]
  Pigweed plant response rating: 80
pigweed; [4]
  Plant response rating, Pigweed: 100
velvetleaf; [2]
  Plant response rating, Velvetleaf: 70
velvetleaf; [3]
  Velvetleaf plant response rating: 60
velvetleaf; [4]
  Plant response rating, Velvetleaf: 80
blackgrass
  Plant response rating, Blackgrass: 70
  Blackgrass plant response rating: 10
wheat
  Plant response rating, Wheat: 10
  Wheat plant response rating: 0
Wild oat
  Plant response rating, Oat, Wild: 30
  Oat, Wild plant response rating: 10
rice
  Rice plant response rating: 30
[1]
  Sedge, Umbrella plant response rating: 80
ducksalad
  Ducksalad plant response rating: 80
barnyardgrass
  Barnyardgrass plant response rating: 70

## CCN1CCc2c(NC(=O)c3cc(C(C)(C)C)nn3CC)cccc2C1=O [Compound 63]
Surinam grass; [2]
  Plant response rating, Surinam Grass: 20
Surinam grass; [3]
  Surinam Grass plant response rating: 10
Surinam grass; [4]
  Plant response rating, Surinam Grass: 20
corn; [2]
  Plant response rating, Corn: 20
corn; [5]
  Corn plant response rating: 30
corn; [6]
  Corn plant response rating: 20
corn; [4]
  Plant response rating, Corn: 0
Large crabgrass; [2]
  Plant response rating, Crabgrass, Large: 20
Large crabgrass; [5]
  Crabgrass, Large plant response rating: 100
Large crabgrass; [6]
  Crabgrass, Large plant response rating: 10
Large crabgrass; [4]
  Plant response rating, Crabgrass, Large: 70
Giant foxtail; [2]
  Plant response rating, Foxtail, Giant: 20
Giant foxtail; [5]
  Foxtail, Giant plant response rating: 100
Giant foxtail; [6]
  Foxtail, Giant plant response rating: 10
Giant foxtail; [4]
  Plant response rating, Foxtail, Giant: 60
lambsquarters; [2]
  Plant response rating, Lambsquarters: 80
lambsquarters; [3]
  Lambsquarters plant response rating: 80
lambsquarters; [4]
  Plant response rating, Lambsquarters: 90
morningglory; [2]
  Plant response rating, Morningglory: 20
morningglory; [3]
  Morningglory plant response rating: 20
morningglory; [4]
  Plant response rating, Morningglory: 0
pigweed; [2]
  Plant response rating, Pigweed: 70
pigweed; [3]
  Pigweed plant response rating: 40
pigweed; [4]
  Plant response rating, Pigweed: 100
velvetleaf; [2]
  Plant response rating, Velvetleaf: 50
velvetleaf; [3]
  Velvetleaf plant response rating: 40
velvetleaf; [4]
  Plant response rating, Velvetleaf: 10
blackgrass
  Plant response rating, Blackgrass: 20
  Blackgrass plant response rating: 10
wheat
  Plant response rating, Wheat: 10
  Wheat plant response rating: 10
Wild oat
  Plant response rating, Oat, Wild: 30
  Oat, Wild plant response rating: 20
rice
  Rice plant response rating: 60
[1]
  Sedge, Umbrella plant response rating: 100
ducksalad
  Ducksalad plant response rating: 90
barnyardgrass
  Barnyardgrass plant response rating: 80
